From article PMC11855827, “High-Throughput Screening of Five Compound Libraries for Anthelmintic Activity and Toxicity Leads to the Discovery of Two Flavonoid Compounds” (International Journal of Molecular Sciences, 2025)
Where a name gives a salt, the structure may show the parent alone. Read-outs that look alike come from different tables or passages of the source.

Tested on: C. elegans
Assay: microbe, parasite or virus in culture
Conditions: Caenorhabditis elegans
[1] = 0 h, read-out: Percentage of motility inhibition 0 h, Table S2, C. elegans SS assay, 110 μM, 0 h, averages of 4 data points
[2] = 24 h, read-out: Percentage of motility inhibition 24 h, Table S2, C. elegans SS assay, 110 μM, 24 h, averages of 4 data points
[3] = 0 h, read-out: Percentage of motility inhibition 0 h

## O=C1CN(/N=C/c2ccc([N+](=O)[O-])o2)C(=O)N1 [Nitrofurantoin]
[1]
  inhibition at 110 µM: 24%
[2]
  inhibition at 110 µM: 4%

## NC(=O)N/N=C/c1ccc([N+](=O)[O-])o1 [Nitrofurazone]
[1]
  inhibition at 110 µM: 25%
[2]
  inhibition at 110 µM: 22%

## COc1ccc(-c2cc(=O)c3c(OC)c(OC)c(OC)c(OC)c3o2)cc1OC [Nobiletin]
[1]
  inhibition at 110 µM: 0%
[2]
  inhibition at 110 µM: 0%

## C=C1C(=O)[C@]23C[C@H]1C[C@@H](O)[C@H]2[C@@]12CO[C@@H](O)[C@@H]1C(C)(C)CC[C@@H]2OC3=O [Nodosin]
[1]
  inhibition at 110 µM: 0%
[2]
  inhibition at 110 µM: 14%

## CC(=O)O[C@H]1CC(=O)OC(C)(C)[C@@H]2CC(=O)[C@]3(C)[C@H](CC[C@@]4(C)[C@H](c5ccoc5)OC(=O)[C@H]5O[C@]543)[C@@]12C [Nomilin]
[1]
  inhibition at 110 µM: 0%
[2]
  inhibition at 110 µM: 22%

## CCCCCCCCC(=O)NCc1ccc(O)c(OC)c1 [Nonivamide]
[2]
  inhibition at 110 µM: 0%

## C=C(C)[C@@H]1CCC2=CC(=O)C[C@@H](C)[C@]2(C)C1 [Nootkatone]
[1]
  inhibition at 110 µM: 28%
[2]
  inhibition at 110 µM: 20%

## c1ccc2c(c1)[nH]c1cnccc12 [Norharmane]
[1]
  inhibition at 110 µM: 0%
[2]
  inhibition at 110 µM: 9%

## O=c1cc(-c2ccccc2)oc2c(O)c(O)cc(O)c12 [Norwogonin]
[1]
  inhibition at 110 µM: 0%
[2]
  inhibition at 110 µM: 12%

## COc1cc2c3c(c1OC)-c1ccccc1C[C@H]3N(C)CC2 [Nuciferine]
[1]
  inhibition at 110 µM: 0%
[2]
  inhibition at 110 µM: 16%

## Cc1onc(-c2ccccc2)c1C(=O)N1CCN(c2ccc([N+](=O)[O-])cc2Cl)CC1 [Nucleozin]
[1]
  inhibition at 110 µM: 17%
[2]
  inhibition at 110 µM: 8%

## CNCc1ccccc1 [N‐Methylbenzylamine]
[1]
  inhibition at 110 µM: 0%
[2]
  inhibition at 110 µM: 4%

## CNC(=O)c1cccnc1 [N‐Methylnicotinamide]
[1]
  inhibition at 110 µM: 3%
[2]
  inhibition at 110 µM: 0%

## CC1COc2c(N3CCN(C)CC3)c(F)cc3c(=O)c(C(=O)O)cn1c23 (centres unmarked) [Ofloxacin]
[1]
  inhibition at 110 µM: 2%
[2]
  inhibition at 110 µM: 0%

## CC1(C)CC[C@]2(C(=O)O)CC[C@]3(C)C(=CC[C@@H]4[C@@]5(C)CCC(=O)C(C)(C)[C@@H]5CC[C@]43C)[C@@H]2C1 [Oleanonic acid]
[3]
  inhibition at 110 µM: 15%

## CCCCCCCC/C=C\CCCCCCCC(=O)O [Oleic acid]
[1]
  inhibition at 110 µM: 0%
[2]
  inhibition at 110 µM: 0%

## C/C=C1/[C@H](O[C@@H]2O[C@H](CO)[C@@H](O)[C@H](O)[C@H]2O)OC=C(C(=O)OC)[C@H]1CC(=O)OCCc1ccc(O)c(O)c1 [Oleuropein]
[1]
  inhibition at 110 µM: 0%
[2]
  inhibition at 110 µM: 0%

## COc1ccc(-c2coc3cc(O[C@@H]4O[C@H](CO)[C@@H](O)[C@H](O)[C@H]4O)ccc3c2=O)cc1 [Ononin]
[1]
  inhibition at 110 µM: 10%
[2]
  inhibition at 110 µM: 0%

## C=C1C(=O)[C@]23[C@H](O)[C@H]1CC[C@H]2[C@@]12CO[C@]3(O)[C@@H](O)[C@@H]1C(C)(C)CC[C@@H]2O [Oridonin]
[1]
  inhibition at 110 µM: 0%
[2]
  inhibition at 110 µM: 3%

## Cc1ncc([N+](=O)[O-])n1CC(O)CCl (centres unmarked) [Ornidazole]
[1]
  inhibition at 110 µM: 8%
[2]
  inhibition at 110 µM: 7%

## COc1c(O)cc2oc(-c3ccccc3)cc(=O)c2c1O [Oroxylin A]
[1]
  inhibition at 110 µM: 39%
[2]
  inhibition at 110 µM: 12%

## O=C(Nc1ccc(O)cc1)c1ccccc1O [Osalmid]
[1]
  inhibition at 110 µM: 48%
[2]
  inhibition at 110 µM: 1%

## CN(C(=O)CN(CCO)CC(=O)N(C)C(C)(C)Cc1ccccc1)C(C)(C)Cc1ccccc1 [Oxethazaine]
[1]
  inhibition at 110 µM: 44%
[2]
  inhibition at 110 µM: 25%

## COC(=O)Nc1nc2ccc([S+]([O-])c3ccccc3)cc2[nH]1 (centres unmarked) [Oxfendazole]
[1]
  inhibition at 110 µM: 12%
[2]
  inhibition at 110 µM: 5%

## CCCOc1ccc2nc(NC(=O)OC)[nH]c2c1 [Oxibendazole]
[1]
  inhibition at 110 µM: 17%
[2]
  inhibition at 110 µM: 28%

## O=C1Cc2ccccc2N1 [Oxindole]
[1]
  inhibition at 110 µM: 14%
[2]
  inhibition at 110 µM: 7%

## O=C(Nc1cc(Cl)cc(Cl)c1O)c1c(O)c(Cl)cc(Cl)c1Cl [Oxyclozanide, reference compound]
0 h, read-out: Inhibition (%) 110 μM (0 h), C. elegans L4 motility, 110 μM, 0 h, mean ± SD of four experiments
  inhibition at 110 µM: 10 ± 9%
24 h, read-out: Inhibition (%) 110 μM (24 h), C. elegans L4 motility, 110 μM, 24 h, mean ± SD of four experiments
  inhibition at 110 µM: 93 ± 5%

## CCCCC1C(=O)N(c2ccccc2)N(c2ccc(O)cc2)C1=O (centres unmarked) [Oxyphenbutazone]
[1]
  inhibition at 110 µM: 0%
[2]
  inhibition at 110 µM: 0%

## O=C1C=CC[C@@H]2[C@H]3CCC[N+]4([O-])CCC[C@@H](CN12)[C@@H]34 (some centres unmarked) [Oxysophocarpine]
[1]
  inhibition at 110 µM: 34%
[2]
  inhibition at 110 µM: 0%

## CN(C)[C@@H]1C(O)=C(C(N)=O)C(=O)[C@@]2(O)C(O)=C3C(=O)c4c(O)cccc4[C@@](C)(O)[C@H]3[C@H](O)[C@@H]12 [Oxytetracycline]
[1]
  inhibition at 110 µM: 20%
[2]
  inhibition at 110 µM: 13%

## O=[N+]([O-])c1cn2c(n1)OC[C@@H](OCc1ccc(OC(F)(F)F)cc1)C2 [PA‐824]
[1]
  inhibition at 110 µM: 33%
[2]
  inhibition at 110 µM: 0%

## CC(C)OC(=O)[C@H](C)N[P@](=O)(OC[C@H]1O[C@@H](n2ccc(=O)[nH]c2=O)[C@](C)(F)[C@@H]1O)Oc1ccccc1 [PSI‐7977]
[1]
  inhibition at 110 µM: 6%
[2]
  inhibition at 110 µM: 11%

## C=C(CC[C@@H](C(=O)O)[C@H]1[C@H](O)C[C@@]2(C)C3=C(CC[C@]12C)[C@@]1(C)CC[C@H](OC(C)=O)C(C)(C)[C@@H]1CC3)C(C)C [Pachymic acid]
[1]
  inhibition at 110 µM: 45%
[2]
  inhibition at 110 µM: 21%

## C[C@@]12C[C@@]3(O)O[C@@H](O1)[C@]1(COC(=O)c4ccccc4)[C@H]3C[C@@]12O[C@@H]1O[C@H](CO)[C@@H](O)[C@H](O)[C@H]1O [Paeoniflorin]
[1]
  inhibition at 110 µM: 4%
[2]
  inhibition at 110 µM: 10%

## COc1ccc(C(C)=O)c(O)c1 [Paeonol]
[3]
  inhibition at 110 µM: 0%
24 h, read-out: Percentage of motility inhibition 24 h
  inhibition at 110 µM: 0%

## CC1(C)CCC[C@](C)([C@H]2CC[C@]3(C)[C@@H]2[C@H](O)C[C@@H]2[C@@]4(C)CC[C@H](O)C(C)(C)[C@@H]4CC[C@]23C)O1 [Panaxadiol]
[1]
  inhibition at 110 µM: 39%
[2]
  inhibition at 110 µM: 36%

## C=C1C(=O)O[C@H]2[C@H]1CC/C(C)=C/CC[C@@]1(C)O[C@@H]21 [Parthenolide]
[1]
  inhibition at 110 µM: 6%
[2]
  inhibition at 110 µM: 26%

## COc1ccc(-c2cc(=O)c3c(O)c(OC)c(O)cc3o2)cc1 [Pectolinarigenin]
[1]
  inhibition at 110 µM: 4%
[2]
  inhibition at 110 µM: 0%

## C[C@@H]1CC[C@]2(C(=O)O[C@@H]3O[C@H](CO)[C@@H](O)[C@H](O)[C@H]3O)CC[C@]3(C)C(=CC[C@@H]4[C@@]5(C)CC[C@H](O)[C@@](C)(CO)[C@@H]5CC[C@]43C)[C@@H]2[C@]1(C)O [Pedunculoside]
[1]
  inhibition at 110 µM: 14%
[2]
  inhibition at 110 µM: 13%

## Nc1nc2c(ncn2CCC(CO)CO)c(=O)[nH]1 [Penciclovir]
[1]
  inhibition at 110 µM: 22%
[2]
  inhibition at 110 µM: 1%

## CC1(C)S[C@@H]2[C@H](NC(=O)Cc3ccccc3)C(=O)N2[C@H]1C(=O)O [Penicillin G s odium salt]
[1]
  inhibition at 110 µM: 16%
[2]
  inhibition at 110 µM: 22%

## CC(C)CC(C)c1sccc1NC(=O)c1cn(C)nc1C(F)(F)F (centres unmarked) [Penthiopyrad]
[1]
  inhibition at 110 µM: 21%
[2]
  inhibition at 110 µM: 18%

## CC(=O)O[C@@H]1[C@H]2[C@H]3C[C@H]4C5=Nc6ccccc6[C@]51C[C@@H]2N4[C@H](C)C3C=O (some centres unmarked) [Perakine]
[1]
  inhibition at 110 µM: 0%
[2]
  inhibition at 110 µM: 0%

## CC1(C)C(C=C(Cl)Cl)C1C(=O)OCc1cccc(Oc2ccccc2)c1 (centres unmarked) [Permethrin]
[1]
  inhibition at 110 µM: 9%
[2]
  inhibition at 110 µM: 7%
